The source of these data is PMC9114115, “Property space mapping of Pseudomonas aeruginosa permeability to small molecules” (Scientific Reports, 2022).

Converted amounts (≈) assume the structure as drawn. “And” between values parts separate entries of the source, which are not always exact repeats. Equal values may be shown once. A value given as a limit tells only on which side of the number the result lay.

The test system of data set [1] is P. aeruginosa PAO1. The experiment in a line: MIC by two-fold dilution, wild type PAO1. As to conditions: for MIC: Pseudomonas aeruginosa, PAO1, MOPS-M9 medium, read-out: MICs. The data set is classed as cell-based, Pseudomonas aeruginosa. The protocol: (§1) In all experiments, P. aeruginosa PAO1-Pore (PAO1 attTn7::PLAC-fhuA) and PΔ3-Pore (ΔmexAB ΔmexCD ΔmexXY attTn7::PLAC-fhuA) strains were used[29]. Strains were routinely grown in Luria–Bertani (LB) or MOPS-M9 medium at 37 °C with aeration. MICs shown in Tables 1 and 2 were determined by a two-fold dilution method in LB broth and MOPS-M9 medium, respectively, following the previously described protocol.

Data set [2] concerns P. aeruginosa PAO1-Pore. The experiment in a line: MIC by two-fold dilution, hyperporinated PAO1-Pore. The data set is classed as cell-based, Pseudomonas aeruginosa. As to conditions: for MICs: PAO1-Pore, LB broth, Table S2; for MIC: Pseudomonas aeruginosa, PAO1, read-out: MICs. The protocol:
as §1

In data set [3] the test system is P. aeruginosa PΔ3. As to the kind of experiment: microbe, parasite or virus in culture. The data set is classed as cell-based, Pseudomonas aeruginosa. As to conditions: Pseudomonas aeruginosa, read-out: MICs. The protocol:
as §1

The test system of data set [4] is P. aeruginosa PΔ3-Pore. The experiment in a line: MIC by two-fold dilution, barrierless PΔ3-Pore. The data set is classed as cell-based, Pseudomonas aeruginosa. Conditions: for MIC: Pseudomonas aeruginosa, read-out: MICs, P∆3-Pore, MOPS-M9 medium; for MICs: P∆3-Pore, LB broth, Table S2. The protocol:
as §1

Data set [5] deals with P. aeruginosa PAO1 cells. The experiment in a line: LC–MS quantification of intracellular accumulation, PAO1.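 For all read-outs here: slope of accumulation versus external concentration fitted as a line through zero.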 As to conditions: 10-80 µM; for Concentration slopes of accumulation, PAO1_1 min: 1 min incubation; for Concentration slopes of accumulation, PAO1_40 min: 40 min incubation. An outline of the steps:
(§2)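 Cells grown in MOPS-M9 (pH 7.2) with 1% glycerol, Pore strains induced with 0.1 mM IPTG, concentrated 10X in spent medium and exposed to 10, 20, 40, 80 µM compound for 1 and 40 min at RT. Filter-collected cells extracted with methanol; compound quantified by positive-ion LC–MS against calibration in PAO1 cell extract, no-cell filter controls.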

For data set [6], the system named is P. aeruginosa PAO1-Pore cells. As to the kind of experiment: LC–MS quantification of intracellular accumulation, PAO1-Pore.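 For all read-outs here: slope of accumulation versus external concentration fitted as a line through zero.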 Conditions: 10-80 µM; for Concentration slopes of accumulation, PAO1-Pore_1 min: 1 min incubation; for Concentration slopes of accumulation, PAO1-Pore_40 min: 40 min incubation. An outline of the steps:
as §2

Data set [7] deals with P. aeruginosa PΔ3 cells. As to conditions: 10-80 µM; for Concentration slopes of accumulation, PΔ3_1 min: 1 min incubation; for Concentration slopes of accumulation, PΔ3_40 min: 40 min incubation. An outline of the steps:
as §2

Data set [8] has as its system P. aeruginosa PΔ3-Pore cells. The experiment in a line: LC–MS quantification of intracellular accumulation, PΔ3-Pore. Conditions: 10-80 µM; for Concentration slopes of accumulation, PΔ3-Pore_1 min: 1 min incubation; for Concentration slopes of accumulation, PΔ3-Pore_40min: 40 min incubation. An outline of the steps:
as §2

Data set [9] relates to P. aeruginosa. Conditions: sheet "Good" permeators; all listed compounds are good permeators. The protocol:
The measured levels of compound accumulation were analyzed using machine learning to determine which features of the compounds are most important for enabling their cellular accumulation and to determine their optimal values. […] To accentuate the permeability aspect, the accumulation slopes in efflux-deficient and hyperporinated strains were normalized to those in the parental PAO1 strain.
To help visualize the data, we performed a principal component (PC) decomposition of the data.
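Throughout, for Concentration slopes of accumulation, PΔ3 1 min: slope of accumulation versus external concentration fitted as a line through zero.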
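Throughout, for Concentration slopes of accumulation, PΔ3 40 min: slope of accumulation versus external concentration fitted as a line through zero.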

In the case of `CCn1cc(C(=O)O)c(=O)c2cc(F)c(N3CCNC(C)C3)c(F)c21` (centres unmarked) [OU-0000616, LOMEFLOXACIN], the MICs in [1] (PAO1, LB broth, Table S2) is listed as 1.56. In addition, in [1], the MIC was 2.5 µM (≈ 0.878 µg/mL). In data set [2], the MICs worked out at 1.56 and the MIC amounted to 0.125 µM (≈ 0.0439 µg/mL). For the same compound, the MIC in [3] came out at 0.625 µM (≈ 0.22 µg/mL). Also, in data set [4], the MIC was 0.125 µM (≈ 0.0439 µg/mL) and the MICs turned out to be 0.024. Moreover, in [5], the “Concentration slopes of accumulation, PAO1_1 min” value (“Concentration slopes … PAO1_1 min” for short) came out at 3.37 and the “Concentration slopes of accumulation, PAO1_40 min” value (“Concentration slopes … PAO1_40 min” below) came to 2.56. In [6], the “Concentration slopes of accumulation, PAO1-Pore_1 min” value came to 2.85 and the “Concentration slopes of accumulation, PAO1-Pore_40 min” value stood at 10.46. In [7], the “Concentration slopes of accumulation, PΔ3_1 min” value (“Concentration slopes … PΔ3_1 min” below) was 2.91 and the “Concentration slopes of accumulation, PΔ3_40 min” value (from here on “Concentration slopes … PΔ3_40 min”) is given as 6.86. In addition, in data set [8], the “Concentration slopes of accumulation, PΔ3-Pore_1 min” value was found to be 3.95 and the “Concentration slopes of accumulation, PΔ3-Pore_40min” value is reported as 8.65. In [9], the “Cluster of the identified "good" permeators” value (“Cluster” below) is on record as 4.
Regarding `C[C@@H]1CN(c2c(F)c(N)c3c(=O)c(C(=O)O)cn(C4CC4)c3c2F)C[C@H](C)N1` [OU-0000617, SPARFLOXACIN], the MIC in [1] is 2 µM and 0.8 µg/mL. In addition, in data set [2], the MICs worked out at 0.25; the MIC was 0.031 µM and 0.01 µg/mL. Further, the MIC in data set [3] was 0.5 µM and 0.2 µg/mL. Also, in data set [4], the MIC was 0.016 µM and 0.01 µg/mL; the MICs is listed as 0.0039. In addition, in [5], the “Concentration slopes … PAO1_1 min” value was 4.89 and the “Concentration slopes … PAO1_40 min” value is 5.25. For the same compound, in [6], the “Concentration slopes of accumulation, PAO1-Pore_1 min” value came out at 8.17 and the “Concentration slopes of accumulation, PAO1-Pore_40 min” value is 10.82. Moreover, in data set [7], the “Concentration slopes … PΔ3_1 min” value is recorded as 5.48 and the “Concentration slopes … PΔ3_40 min” value was found to be 4.11. For the same compound, in data set [8], the “Concentration slopes of accumulation, PΔ3-Pore_1 min” value is reported as 4.64 and the “Concentration slopes of accumulation, PΔ3-Pore_40min” value is 10.98. In data set [9], the “Cluster” value is 4.
As for `COc1c(N2CCNC(C)C2)c(F)cc2c(=O)c(C(=O)O)cn(C3CC3)c12` (centres unmarked) [OU-0000623, GATIFLOXACIN], in [1], the MIC was 2 µM and 0.8 µg/mL. In data set [2], the MICs amounted to 0.25; the MIC is 0.0625 µM and 0.02 µg/mL. In addition, the MIC in data set [3] is 0.5 µM and 0.2 µg/mL. Besides, in data set [4], the MIC is 0.031 µM and 0.01 µg/mL; the MICs came to 0.0039. Also, in data set [5], the “Concentration slopes … PAO1_1 min” value was determined as 1.47 and the “Concentration slopes … PAO1_40 min” value was determined as 6.10. Besides, in data set [6], the “Concentration slopes of accumulation, PAO1-Pore_1 min” value was determined as 2.29 and the “Concentration slopes of accumulation, PAO1-Pore_40 min” value is reported as 4.14. For the same compound, in data set [7], the “Concentration slopes … PΔ3_1 min” value is 1.11 and the “Concentration slopes … PΔ3_40 min” value worked out at 4.13. For the same compound, in data set [8], the “Concentration slopes of accumulation, PΔ3-Pore_1 min” value turned out to be 1.90 and the “Concentration slopes of accumulation, PΔ3-Pore_40min” value turned out to be 5.45. Moreover, the “Cluster” value in data set [9] was 1.
As for `Cc1oc(=O)oc1CN1CCN(c2cc3c(cc2F)c(=O)c(C(=O)O)c2n3C(C)S2)CC1` (centres unmarked) [OU-0000631, PRULIFLOXACIN], the MIC in data set [1] is 0.5 µM and 0.23 µg/mL. Also, in data set [2], the MICs stood at 0.0625; the MIC was 0.016 µM and 0.01 µg/mL. The MIC in data set [3] was 0.125 µM and 0.06 µg/mL. Besides, in [4], the MIC is 0.004 µM and 0.002 µg/mL; the MICs came to 0.0039. In data set [5], the “Concentration slopes … PAO1_1 min” value came out at 10.64 and the “Concentration slopes … PAO1_40 min” value is listed as 11.45. In data set [6], the “Concentration slopes of accumulation, PAO1-Pore_1 min” value came out at 7.49 and the “Concentration slopes of accumulation, PAO1-Pore_40 min” value is reported as 9.31. In addition, in data set [7], the “Concentration slopes … PΔ3_1 min” value amounted to 7.35 and the “Concentration slopes … PΔ3_40 min” value is reported as 8.36. Moreover, in [8], the “Concentration slopes of accumulation, PΔ3-Pore_1 min” value is reported as 5.06 and the “Concentration slopes of accumulation, PΔ3-Pore_40min” value worked out at 5.20. Moreover, the “Cluster” value in [9] is 3.
For `Cc1cc(C)nc(NS(=O)(=O)c2ccc(N)cc2)n1` [OU-0000689, SULFAMETHAZINE], the MIC in [1] is > 200 µM and > 60.1 µg/mL. Also, the MIC in [2] is 50 µM and 15 µg/mL. For the same compound, the MIC in [3] is 100 µM and 30 µg/mL. For the same compound, the MIC in [4] was 12.5 µM and 3.75 µg/mL. In data set [5], the “Concentration slopes … PAO1_1 min” value was 1.42 and the “Concentration slopes … PAO1_40 min” value was found to be 1.40. Moreover, in [6], the “Concentration slopes of accumulation, PAO1-Pore_1 min” value was determined as 1.53 and the “Concentration slopes of accumulation, PAO1-Pore_40 min” value amounted to 1.05. Further, in [7], the “Concentration slopes … PΔ3_1 min” value came to 1.31 and the “Concentration slopes … PΔ3_40 min” value is 1.35. Further, in data set [8], the “Concentration slopes of accumulation, PΔ3-Pore_1 min” value was 1.54 and the “Concentration slopes of accumulation, PΔ3-Pore_40min” value was determined as 1.19. Besides, the “Cluster” value in data set [9] worked out at 1.
On to `CCn1cc(C(=O)O)c(=O)c2cc(F)c(N3CCNCC3)cc21` [OU-0000789, Norfloxacin], for which the MIC in data set [1] was 1.25 µM and 0.4 µg/mL. Also, in data set [2], the MICs worked out at 1; the MIC is 0.2 µM and 0.06 µg/mL. The MIC in [3] is 0.625 µM and 0.2 µg/mL. Moreover, in data set [4], the MIC is 0.1 µM and 0.03 µg/mL; the MICs was found to be 0.0156. Moreover, in data set [5], the “Concentration slopes … PAO1_1 min” value was found to be 37.81 and the “Concentration slopes … PAO1_40 min” value was 32.76. Further, in data set [6], the “Concentration slopes of accumulation, PAO1-Pore_1 min” value came out at 31.44 and the “Concentration slopes of accumulation, PAO1-Pore_40 min” value is listed as 54.56. In [7], the “Concentration slopes … PΔ3_1 min” value turned out to be 15.28 and the “Concentration slopes … PΔ3_40 min” value is on record as 26.08. For the same compound, in data set [8], the “Concentration slopes of accumulation, PΔ3-Pore_1 min” value is listed as 25.07 and the “Concentration slopes of accumulation, PΔ3-Pore_40min” value worked out at 33.05. Moreover, the “Cluster” value in data set [9] stood at 3.
For the compound `CC(=O)NC[C@H]1CN(c2ccc(N3CCOCC3)c(F)c2)C(=O)O1` [OU-0031508, linezolid], the MIC in data set [1] is > 200 µM and > 67.5 µg/mL. Also, in data set [2], the MICs is given as 25 and the MIC was 200 µM (≈ 67.5 µg/mL). Moreover, the MIC in data set [3] was 200 µM (≈ 67.5 µg/mL). Also, in data set [4], the MIC stood at 25 µM (≈ 8.43 µg/mL) and the MICs came out at 12.5. Besides, in data set [5], the “Concentration slopes … PAO1_1 min” value is 34.71 and the “Concentration slopes … PAO1_40 min” value worked out at 41.30. In addition, in data set [6], the “Concentration slopes of accumulation, PAO1-Pore_1 min” value came to 12.71 and the “Concentration slopes of accumulation, PAO1-Pore_40 min” value is listed as 26.51. Also, in data set [7], the “Concentration slopes … PΔ3_1 min” value turned out to be 39.20 and the “Concentration slopes … PΔ3_40 min” value amounted to 25.30. Moreover, in data set [8], the “Concentration slopes of accumulation, PΔ3-Pore_1 min” value is reported as 30.83 and the “Concentration slopes of accumulation, PΔ3-Pore_40min” value is 28.73. The “Cluster” value in data set [9] worked out at 3.
